Measurements reported in patent publication US20140112895A1, “GLP-1 PROMOTER MEDIATED INSULIN EXPRESSION FOR THE TREATMENT OF DIABETES” (priority 2010, published 2014).

Test system: STC-1 cells
Assay: MTT assay of antibiotic cytotoxicity on STC-1 cells
Format: cell-based, mouse
Details: STC-1 cells without antibiotic resistant gene; antibiotic range 0 to 1 mg/ml; optical density read at 560 nm
Source text: For assessment of antibiotic cytotoxicity, a common methodology is the MTT assay which has been widely used as a colorimetric approach based on the activity of living cells. MTT assay is a standard assay (an assay which measures changes in color) for measuring cellular proliferation. Yellow MTT (3-(4,5-Dimethylthiazol-2-yl)-2,5-diphenyltetrazolium bromide, a tetrazole) is reduced to purple formazan in the mitochondria of living cells. The absorbance of this colored solution can be quantified by measuring at a certain wavelength (usually between 500 and 600 nm) by a spectrophotometer.
Therefore, the MTT assay was done for both antibiotics to determine the appropriate concentration of the antibiotic that kills the entire STC-1 cells lacking the antibiotic resistant gene. In this case, STC-1 cells (without any antibiotic resistant gene) were treated with different concentration of zeocin and geneticin antibiotic. The concentration of antibiotics in the culture media was in the range of 0 to 1 mg/ml in 12 wells (Table 7).
Optical density of solutions was read at 560 nm on an ELISA plate reader. The absorbance of colored solution is directly proportional to the number of cells. Based on MTT assay result, the concentration of geneticin and zeocin antibiotic that are able to kill all the STC-1 cells (without antibiotic resistant gene) were 400 ug/ml and 500 ug/ml.

Row | Compound | concentration of antibiotic able to kill all the STC-1 cells [µg/mL]
1 | CN[C@@H]1[C@@H](O)[C@@H](O[C@@H]2[C@@H](O)[C@H](O[C@H]3O[C@H]([C@@H](C)O)[C@@H](O)[C@H](O)[C@H]3N)[C@@H](N)C[C@H]2N)OC[C@]1(C)O [geneticin] | 400
2 | Cc1c(N)nc([C@H](CC(N)=O)NC[C@H](N)C(N)=O)nc1C(=O)N[C@H](C(=O)N[C@H](C)[C@@H](O)[C@H](C)C(=O)N[C@H](C(=O)NCCC1=N[C@@H](c2nc(C(=O)NCCCCN=C(N)N)cs2)CS1)[C@@H](C)O)[C@@H](O[C@@H]1O[C@@H](CO)[C@@H](O)[C@H](O)[C@@H]1O[C@H]1O[C@H](CO)[C@@H](O)[C@H](OC(N)=O)[C@@H]1O)c1cnc[nH]1 [zeocin] | 500
